The source of these data is patent US20210161894A1, “Compositions and Methods for Modulating Liver Endothelial Cell Fenestrations” (priority 2017, published 2021).

Series [1] relates to isolated LSECs (liver sinusoidal endothelial cells). In words: SEM of fenestrations in isolated LSECs from young and old mice after 30 min drug treatment (second Example 7). The format is cell-based. The following applies: for Diameter / Frequency / Porosity: 30 min; for effect on porosity and fenestration frequency (summary in words): young and old LSECs. The procedure:
3-4 and 18-24 month old male C57/B16 mice were obtained from the Animal Resource Centre in Perth, Western Australia. Animals were housed at the ANZAC Research Institute animal house on a 12 hour light/dark cycle and provided with ad libitum access to food and water. Mice were not fasted prior to euthanasia by a single intraperitoneal injection with 100 mg/kg ketamine and 10 mg/kg xylazine in saline. The study was approved by the Animal Welfare Committee of the Sydney Local Health District and was performed in accordance with the Australian Code of Practice for the care and use of animals for scientific research (AWC 2016/009). All information provided accords with the ARRIVE guidelines.
As described previously (Cogger et al. J e52698, 2015 https://dx.doi.org/10.3791/52698), mouse LSEC isolation was performed by perfusion of the liver with collagenase. Non-parenchymal cells were removed by a two-step Percoll gradient and Kupffer cells were removed by selective adherence to plastic. LSECs (seeded at 0.5×10^6 cells/cm2) were cultured (37° C., 5% CO2) in serum free RPMI-1640 for 3.5 hours before use.
Cells were treated with various agents for 30 minutes to determine effects on fenestrations. All agents were dissolved in serum-free RPMI media. All experiments were performed in triplicate for both young and old mice. Actin was disrupted with 0.5 μg/ml cytochalasin D and lipid rafts were disrupted with 3.6 and 1.8 μg/ml 7-keocholesterol; dosages were selected. […] The serotonergic/phospholipase C pathway was promoted with DOI (0.1 μg/ml) and endothelin receptors were inhibited by bosentan (550, 55 and 5.5 ng/ml) Death receptor 4 was promoted with TRAIL (100, 10. 1, 0.1 and 0.01 ng/ml) and NAD+ was promoted with NMN (5000, 50, 10, 1 and 0.1 μg/ml).
SEM was performed as previous described (Corbin et al J Biol Chem 274: 13729-13732, 1999.). LSECs were fixed in 2.5% glutaraldehyde in 0.1M sodium cacodylate buffer, osmicated, dehydrated in graded ethanol and hexamethyl disilazane, mounted on stubs, sputter coated with platinum and examined using a JEOL 6380 Scanning Electron Microscope (JEOL Ltd, Japan). Images at 10,000× magnification were collected by a blinded observer and used to measure fenestration diameter and LSEC porosity using Image J (NIH, MD, USA). […] Fenestrations less than 30 nm and gaps more than 300 nm were excluded from analysis. Porosity was defined as the percentage of the cell membrane covered with fenestrations. Frequency was defined at the number of fenestrations per […].
Individual specifications of analyses are described in figures legends. All data are presented as mean±SD. Experimental design and analysis were performed in accordance with the APS guidelines described in Curran-Everett and Benos DJ. Adv Physiol Educ 31: 295-298, 2007.

In series [2] the test system is LSEC fenestrations. Put plainly: SEM of LSEC fenestrations after drug treatments (Example 2, FIGS. 1-6). The settings on record: for change in fenestration porosity / change in fenestration frequency: Cytochalasin D 0.5 μg/ml, Amlodipine 20 ng/ml; for change in fenestration frequency: Bosentan 0.1 μM, Sildenafil 300 ng/ml; for sieve plates and fenestration density on SEM images: young and old mice. The format is cell-based, mice. The source says: Young and old C57B16 mice (n=3 young mice, age 3-4 and n=3 old mice, 20-24 months) were maintained under full SPF conditions and with ad libitum feeding. The study had the approval of the Sydney South West Area Health Service Animal Welfare Committee. Mice at 20-24 months are senescent. Animals were sacrificed withCO2 and livers immediately perfusion-fixed via a 23G needle inserted into the portal vein. Liver tissue was fixed with1% glutaraldehyde/4% para-formaldehyde in PBS (0.1M sucrose).
Drug treatments and dosages (shown superimposed on their corresponding image in FIGS. 1, and 2) were performed by incubating liver cells at 37° C., 5% CO2 for 30 mins using RPMI with or without dissolved drug. All images were taken by two blinded researchers using a SEM at 10,000×, scale bars of 1 μm are shown.
Each data point represents the average±SD of 8 images (as shown in FIGS. 1 and 2), 616-3312 fenestration raw data points were collected per treatment.

Series [3] relates to actin cytoskeleton of LSECs. Put plainly: dSTORM imaging of the actin cytoskeleton. Format: cell-based. The following applies: young mice. The procedure:
dSTORM imaging was performed using an in-house microscope. LSECs were prepared for dSTORM by washing twice with PBS and fixation with 4% paraformaldehyde for 30 mins. Then LSECs were washed twice with PBS, permeabilised with Triton-X for 90 secs, blocked with 5% bovine serum albumin for 1 hour, and stained with Alexa Flour phalloidin 488 (1:40) for 20 min prior to imaging. Cells were washed using PBS with 0.1% Tween and placed in OxEA buffer (30) for dSTORM visualisation and image capture. The dSTORM used 488 and 647 nm excitation from diode-pumped lasers (Coherent Inc, CA, USA). Excitation was delivered via a 1.49NA 60× oil-immersion TIRF objective (Olympus Australia, AUS). Fluorescence was captured on two separate sCMOS cameras (Imaging Development Systems GmbH, Germany). Data was collected for up to 40,000 images at around 75 fps. 5-8 whole cell images were collected by a blinded observer for each treatment dosage and processed using rapidSTORM open source software (Wolter et al. Nat Methods 9: 1040, 2012.). Each image was examined for all sieve plates and actin structures. Densitometry measurements were performed using 5-8 dSTORM images with data analysis performed using Image J software (NIH, MD, USA).

Series [4] has as its system lipid rafts and fenestrations of LSECs. In words: 3D-SIM study of lipid rafts and fenestrations. Format: cell-based. From the text: Sieve plates containing fenestrations are intercalated between thickened areas of membrane (lipid rafts).
The test system of the next series is fenestrations. The following applies: young mice; cited from earlier work.
The test system of another series is Intracellular cGMP. In words: Cyclic GMP ELISA. The format is cell-based, mice. The procedure:
Assays for MTT and cGMP were performed as instructed by the kit. Briefly, MTT assays were performed following drug treatments. Cells were washed with PBS and incubated with RPMI media containing […] MTT solution. Cells were incubated at 37° C. for 4 hrs and lysed with […] solubilisation solution, 30 mins colour development followed and measured at 570 nm using a spectrophotometer. cGMP assays were also performed after drug treatments. Cells were washed with PBS and lysed with 0.1M HCl. Following sample collection the sample was acetylated and prepared with kit reagents. Samples were incubated for 18 hrs at 4° C. before examination at 410 nm with a spectrophotometer.
(In general: In an ELISA, binding on a coated surface is turned into a signal by an enzyme label.)

The next series relates to NAD+. The following applies: cited from earlier work.
For series [5] the following is noted: old rats, 500 mg/kg; cited from earlier work.
The subject of series [6] is LSEC fenestrations. Put plainly: Acute defenestration by a single intraperitoneal injection of P407. Format: in vivo. The source says:
Acute loss of fenestrations, in the absence of other ageing changes, causes dyslipidaemia and insulin resistance Ageing is a complex process leading to impairment of many cellular pathways. To test the hypothesis that age-related loss of fenestrations contributes to dyslipidaemia and insulin resistance, the inventors aimed to evaluate the impact of acute defenestration in the absence of other ageing changes. […] P407 administration caused a 10-fold increase in circulating lipoproteins, especially triglycerides and chylomicron remnants, while preventing the transfer of small chylomicrons across the LSEC.

Where [7] appears, read: old mice, DOI 0.1 μg/ml, 7KC 9 μM.

Entries after “also recorded” stand apart in the source; their conditions may differ.

As to `C=C1[C@@H](C)[C@H]2[C@H](Cc3ccccc3)NC(=O)[C@]23[C@H](OC(C)=O)/C=C/[C@@](C)(O)C(=O)[C@@H](C)C/C=C/[C@H]3[C@@H]1O` [Cytochalasin D, cytochalasin D], the “fenestrations in LSECs from old mice” value in series [1] (old mice) is given as “increased fenestrations”. For the same compound, in series [1] (old mice, 0.5 μg/ml), the Diameter is listed as 117.04 ± 9.26 nm, the Frequency is listed as 3.39 ± 1.07 no/area and the Porosity came to 3.82 ± 1.01%. Besides, the “effect on porosity and fenestration frequency (summary in words)” value in series [1] is “significantly increased frequency but not porosity in young and old LSECs”. Besides, in [1] (young mice, 0.5 μg/ml), the “Change in Porosity, Young” value is on record as “↑ (ns)”; the Diameter is reported as 126.78 ± 10.68 nm; the Frequency was 4.57 ± 0.51 no/area; the Porosity amounted to 6.05 ± 0.62 %. Moreover, in series [1] (young mice, not significant (P=0.08)), the increase in porosity is reported as 33%. In the series on LSEC fenestrations [2] (old mice), the “sieve plate grouping on SEM images” value is “greater fenestration sieve plate grouping”. In the series with LSEC fenestrations [2] (setting [7]), the “change in fenestration porosity” value is reported as “increased porosity” and the “change in fenestration frequency” value is listed as “increased”. Moreover, the “sieve plates and fenestration density on SEM images” value in the series with LSEC fenestrations [2] was “promoted increased fenestration density and maintained sieve plate fenestration clustering”. Further, in the series with LSEC fenestrations [2] (young mice), the “change in fenestration frequency” value was “increased”. In the series on LSEC fenestrations [2] (young mice, DOI 0.1 μg/ml, 7KC 9 μM), the “change in fenestration porosity” value was “increased porosity”. In addition, the “actin changes with drug treatments (dSTORM)” value (“actin changes” for short) in series [3] was “Disordered actin structure; also recorded: Dense actin plasma membrane; also recorded: Stress fibres; also recorded: Single isolated fenestrations”. Also, in series [3] (listed as cytochalasin D), the “actin changes” value is recorded as “extensive actin staining of the plasma membrane; also recorded: loss of smooth fibres encircling the cytoplasm”. Also, in series [4], the “effect on fenestrations and lipid rafts” value is “increased fenestrations and decreased rafts”. The “fenestration porosity and diameter (previously reported)” value in the series on fenestrations was “increase fenestration porosity in young mice without any significant effects on fenestration diameter”.
With `NC(=O)c1ccc[n+]([C@@H]2O[C@H](COP(=O)([O-])O)[C@@H](O)[C@H]2O)c1` [NMN, nicotinamide mononucleotide], in series [1], the gap formation result is “Gap formation was apparent”; the “effect on porosity and fenestration frequency (summary in words)” value is “significant increases in porosity and fenestration frequency in both young and old LSECs”. In series [1] (LSECs from young mice, increase from 4.6%), the “fenestration porosity after treatment” value was 8.1%. This compound also gave an average fenestration diameter in series [1] (old mice) of 132±2 nm. In [1] (old mice, 50 pg/ml), this compound yielded an increase in frequency of 2.25 fold and an increase in porosity of 2.5 fold. In [1] (old mice, 50 μg/ml), this compound registered a Diameter of 132.12 ± 2.28 nm, a Frequency of 3.95 ± 1.35 no/area and a Porosity of 5.92 ± 1.94 %. In series [1] (old mice, 5000 μg/ml), this compound came in with a Diameter of 139.05 ± 11.97 nm, a Frequency of 3.39 ± 0.60 no/area and a Porosity of 5.55 ± 1.75 %. The “dose response on fenestration porosity (words)” value in series [1] (young mice) is reported as “broad range”. Moreover, in [1] (young mice, 50 μg/ml), the Diameter is recorded as 127.68 ± 8.19 nm, the Frequency is given as 4.53 ± 0.58 no/area and the Porosity amounted to 6.08 ± 1.00%. In series [1] (young mice, 5000 μg/ml), this compound returned a Diameter of 130.48 ± 13.21 nm, a Frequency of 5.53 ± 0.58 no/area and a Porosity of 8.05 ± 2.23 %. Also, the “shift in frequency distribution of fenestration diameter” value in series [1] (young mice, NMN 5000 μg/ml, 7-ketocholesterol 3.6 μg/ml) was “an increase in 30-100 nm and 226-500 nm fenestrations with a reduction in 126-200 nm fenestrations”. In the series with LSEC fenestrations [2], the “diameter of fenestrations observed on SEM images” value is “Increased diameter of fenestrations”; the “sieve plates and fenestration density on SEM images” value was “promoted increased fenestration density and maintained sieve plate fenestration clustering”. In addition, the “sieve plate grouping on SEM images” value in the series on LSEC fenestrations [2] (old mice) is reported as “greater fenestration sieve plate grouping”. In the series on LSEC fenestrations [2] (old mice, 50 μg/ml), this compound returned a fenestration diameter of 133.4±0.9 nm, a fenestration frequency of 4.4±1.6 number/μm^2 and a fenestration porosity of 6.6±2.2%. For the same compound, in the series on LSEC fenestrations [2] (old mice, bin range of 101-125 nm), the “peak frequency in histogram of fenestration diameter” value was 24%. Further, in the series with LSEC fenestrations [2] (young mice, 5 mg/ml), the fenestration frequency came out at 5.9±0.1 number/μm^2 and the fenestration porosity is recorded as 9.1±2.0%. In [3], the “actin changes” value is “loss of smooth fibres encircling the cytoplasm; also recorded: disordered, dense actin staining in the plasma membrane and clustering of actin within the cytoplasm; also recorded: Individual fenestrations; also recorded: Disordered actin structure; also recorded: Actin clusters; also recorded: Gap formations”. Further, in the series on Intracellular cGMP, the “change of intracellular cGMP” value was “no changes”. Besides, the “insulin action and secretion” value with NAD+ (diet and age induced type 2 diabetic mice models, similar dosages continuously for 7 days) is “improve insulin action and secretion”. Moreover, the “NAD+” value in the series with NAD+ (female mice, 15 mins after single intraperitoneal injection of 500 mg/kg) is given as “Elevated NAD+”. Further, in series [5], the glucose tolerance entry is recorded as “improved glucose tolerance” and the toxicity entry is listed as “non-toxic”.
As to poloxamer 407 [P407], the “increase in circulating lipoproteins” value in the series with LSEC fenestrations [6] (especially triglycerides and chylomicron remnants) was determined as 10 fold. Also, the “passage of insulin across the LSEC” value with LSEC fenestrations [6] (in vivo) is recorded as “prevented the passage of insulin across the LSEC”. Further, the loss of fenestrations in the series on LSEC fenestrations [6] (within 24 hours of a single intraperitoneal injection) is reported as 30-80%.
